Assay results published in patent publication US20240309043A1, “THERAPEUTICALLY ACTIVE STEROIDAL DERIVATIVES” (Organon R&D Finland Ltd., priority 2017, published 2024).

Experiments:
Assay type in all cases: biochemical
[1] = molecular target: T1, recombinant human 17β-HSD2 (Homo sapiens, UniProt P37059); assay: Inhibition of recombinant human 17β-HSD2; details: inhibitor 1 μM; 50 nM estradiol, 1 mM NADH, 30 min RT
T1 construct: made in house; host or cells: Sd9 (Sf9) insect cells, baculovirus (Bac to Bac Expression System)
T1 sequence (P37059 1-387): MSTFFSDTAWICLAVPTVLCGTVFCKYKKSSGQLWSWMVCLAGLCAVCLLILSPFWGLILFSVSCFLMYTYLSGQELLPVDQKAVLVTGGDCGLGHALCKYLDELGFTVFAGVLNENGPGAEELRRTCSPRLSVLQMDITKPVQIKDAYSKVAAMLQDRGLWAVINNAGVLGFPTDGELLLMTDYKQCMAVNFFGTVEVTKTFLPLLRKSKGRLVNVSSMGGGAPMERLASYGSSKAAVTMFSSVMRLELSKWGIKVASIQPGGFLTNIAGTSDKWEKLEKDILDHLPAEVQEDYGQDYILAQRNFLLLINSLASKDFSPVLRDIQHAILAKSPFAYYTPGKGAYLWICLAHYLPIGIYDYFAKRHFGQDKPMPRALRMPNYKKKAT
How it was run: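 Sf9 baculovirus-expressed enzyme membrane extract (4 μg/ml) incubated 30 min at RT in 20 mM KH2PO4 pH 8.5 with 50 nM estradiol (³H-tracer) and 1 mM NADH, inhibitor at 1 μM or 0.1 μM, 1% DMSO. TCA-stopped; estradiol-to-estrone conversion by radio-HPLC, % inhibition = 100 − % conversion.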

[2] = molecular target: T2, recombinant human 17β-HSD1 (Homo sapiens, UniProt P14061); assay: Inhibition of recombinant human 17β-HSD1; details: inhibitor 100 nM; 30 nM estrone, 1 mM NADPH, 30 min RT
T2 construct: made in house; host or cells: Sd9 (Sf9) insect cells, baculovirus (Bac to Bac Expression System)
T2 sequence (P14061 1-328): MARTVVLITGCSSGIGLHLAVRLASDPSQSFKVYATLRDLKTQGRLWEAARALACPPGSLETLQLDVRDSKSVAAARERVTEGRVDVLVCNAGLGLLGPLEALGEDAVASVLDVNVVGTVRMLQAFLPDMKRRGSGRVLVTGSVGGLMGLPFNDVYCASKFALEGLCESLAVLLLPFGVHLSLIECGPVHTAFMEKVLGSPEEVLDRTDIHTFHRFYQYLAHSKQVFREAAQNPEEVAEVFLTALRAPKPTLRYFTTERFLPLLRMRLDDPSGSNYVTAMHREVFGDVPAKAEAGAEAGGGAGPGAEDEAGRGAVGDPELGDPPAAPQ
How it was run: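 Microsomes from Sf9 cells expressing human 17β-HSD1 (1 μg/ml) were incubated for 30 min at RT in 20 mM KH2PO4 pH 7.4 with 30 nM ³H-estrone, 1 mM NADPH and inhibitor at 1 μM or 0.1 μM (1% DMSO). Estrone-to-estradiol conversion was measured by radio-HPLC after TCA stop, and % inhibition was taken as 100 − % conversion.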

[3] = tested on: HSD1 enzyme that is expressed in rabbit placenta tissue; assay: Inhibition of E1 to E2 conversion in rabbit placenta tissue homogenate; details: inhibitor 100 nM, 30 nM estrone, 30 min

Structure (SMILES): COc1ccc(NC(=O)CC[C@@H]2C/C(=N\O)[C@@]3(C)CCC4c5ccc(Cl)cc5CCC4C23)nn1 (stereo partly drawn) [Compound 50, 3-((13S,15R,E)-3-chloro-17-(hydroxyimino)-13-methyl-7,8,9,11,12,13,14,15,16,17-decahydro-6H-cyclopenta[a]phenanthren-15-yl)-N-(6-methoxypyridazin-3-yl)propanamide]
- inhibition at 1 µM [1]: -2%
- inhibition at 0.1 µM [2]: 37%
- Rabbit placenta inhibition % @100 nM [3]: 42%

Structure (SMILES): C[C@]12CCC3c4ccc(Cl)cc4CCC3C1[C@H](CCC(=O)Nc1ncccc1F)C/C2=N\O (stereo partly drawn) [Compound 62, 3-((13S,15R,E)-3-chloro-17-(hydroxyimino)-13-methyl-7,8,9,11,12,13,14,15,16,17-decahydro-6H-cyclopenta[a]phenanthren-15-yl)-N-(3-fluoropyridin-2-yl)propanamide]
- HSD2 inhibition % @1 μM [1]: −8%
- inhibition at 0.1 µM [2]: 45%
- Rabbit placenta inhibition % @100 nM [3]: 3%

Structure (SMILES): C[C@]12CCC3c4ccccc4CCC3C1[C@H](CCC(=O)Nc1cc(F)ccn1)C/C2=N\O (stereo partly drawn) [Compound 158, N-(4-fluoropyridin-2-yl)-3-((13S,15R,E)-17-(hydroxyimino)-13-methyl-7,8,9,11,12,13,14,15,16,17-decahydro-6H-cyclopenta[a]phenanthren-15-yl)propanamide]
- inhibition at 1 µM [1]: 4%
- inhibition at 0.1 µM [2]: 36%
- Rabbit placenta inhibition % @100 nM [3]: 12%

Structure (SMILES): C[C@]12CCC3c4ccc(Cl)cc4CCC3C1[C@H](CCC(=O)NC1=NCCS1)C/C2=N\O (stereo partly drawn) [Compound 46, 3-((13S,15R,E)-3-chloro-17-(hydroxyimino)-13-methyl-7,8,9,11,12,13,14,15,16,17-decahydro-6H-cyclopenta[a]phenanthren-15-yl)-N-(4,5-dihydrothiazol-2-yl)propanamide]
- inhibition at 1 µM [1]: 0%
- inhibition at 0.1 µM [2]: 55%
- Rabbit placenta inhibition % @100 nM [3]: 50%

Structure (SMILES): C[C@]12CCC3c4ccc(F)cc4CCC3C1[C@H](CCC(=O)Nc1ccc(F)cn1)C/C2=N\O (stereo partly drawn) [Compound 26, 3-((13S,15R,E)-3-fluoro-17-(hydroxyimino)-13-methyl-7,8,9,11,12,13,14,15,16,17-decahydro-6H-cyclopenta[a]phenanthren-15-yl)-N-(5-fluoropyridin-2-yl)propanamide]
- inhibition at 1 µM [1]: 8%
- inhibition at 0.1 µM [2]: 49%
- Rabbit placenta inhibition % @100 nM [3]: 10%

Structure (SMILES): C[C@]12CCC3c4cccc(F)c4CCC3C1[C@H](CCC(=O)Nc1nncs1)C/C2=N\O (stereo partly drawn) [Compound 18, 3-((13S,15R,E)-4-fluoro-17-(hydroxyimino)-13-methyl-7,8,9,11,12,13,14,15,16,17-decahydro-6H-cyclopenta[a]phenanthren-15-yl)-N-(1,3,4-thiadiazol-2-yl)propanamide]
- inhibition at 1 µM [1]: 14%
- inhibition at 0.1 µM [2]: 68%
- Rabbit placenta inhibition % @100 nM [3]: 62%

Structure (SMILES): C[C@]12CCC3c4cccc(F)c4CCC3C1[C@H](CCC(=O)NC1COC1)C/C2=N\O (stereo partly drawn) [Compound 10, 3-((13S,15R,E)-4-fluoro-17-(hydroxyimino)-13-methyl-7,8,9,11,12,13,14,15,16,17-decahydro-6H-cyclopenta[a]phenanthren-15-yl)-N-(oxetan-3-yl)propanamide]
- inhibition at 1 µM [1]: 5%
- inhibition at 0.1 µM [2]: 30%
- Rabbit placenta inhibition % @100 nM [3]: 18%

Structure (SMILES): C[C@]12CCC3c4cccc(F)c4CCC3C1[C@H](CCC(=O)N1CCCC1)C/C2=N\O (stereo partly drawn) [Compound 14, 3-((13S,15R,E)-4-fluoro-17-(hydroxyimino)-13-methyl-7,8,9,11,12,13,14,15,16,17-decahydro-6H-cyclopenta[a]phenanthren-15-yl)-1-(pyrrolidin-1-yl)propan-1-one]
- inhibition at 1 µM [1]: 4%
- inhibition at 0.1 µM [2]: 53%
- Rabbit placenta inhibition % @100 nM [3]: 14%

Structure (SMILES): C[C@]12CCC3c4ccc(F)cc4CCC3C1[C@H](CCC(=O)Nc1ccc(N3CCOCC3)cn1)C/C2=N\O (stereo partly drawn) [Compound 154, 3-((13S,15R,E)-3-fluoro-17-(hydroxyimino)-13-methyl-7,8,9,11,12,13,14,15,16,17-decahydro-6H-cyclopenta[a]phenanthren-15-yl)-N-(5-morpholinopyridin-2-yl)propanamide]
- inhibition at 1 µM [1]: 7%
- inhibition at 0.1 µM [2]: 83%
- Rabbit placenta inhibition % @100 nM [3]: 38%

Structure (SMILES): CCN(CC)C(=O)CC[C@@H]1C/C(=N\O)[C@@]2(C)CCC3c4ccc(Cl)cc4CCC3C12 (stereo partly drawn) [Compound 52, 3-((13S,15R,E)-3-chloro-17-(hydroxyimino)-13-methyl-7,8,9,11,12,13,14,15,16,17-decahydro-6H-cyclopenta[a]phenanthren-15-yl)-N,N-diethylpropanamide]
- inhibition at 1 µM [1]: 2%
- inhibition at 0.1 µM [2]: 64%
- Rabbit placenta inhibition % @100 nM [3]: 6%

Structure (SMILES): COc1ccc(NC(=O)CC[C@@H]2C/C(=N\O)[C@@]3(C)CCC4c5ccc(Cl)cc5CCC4C23)nc1 (stereo partly drawn) [Compound 66, 3-((13S,15R,E)-3-chloro-17-(hydroxyimino)-13-methyl-7,8,9,11,12,13,14,15,16,17-decahydro-6H-cyclopenta[a]phenanthren-15-yl)-N-(5-methoxypyridin-2-yl)propanamide]
- inhibition at 1 µM [1]: 23%
- inhibition at 0.1 µM [2]: 72%
- Rabbit placenta inhibition % @100 nM [3]: 14%

Structure (SMILES): C[C@]12CCC3c4ccccc4CCC3C1[C@H](CCC(=O)Nc1ncc(F)cc1F)C/C2=N\O (stereo partly drawn) [Compound 166, N-(3,5-difluoropyridin-2-yl)-3-((13S,15R,E)-17-(hydroxyimino)-13-methyl-7,8,9,11,12,13,14,15,16,17-decahydro-6H-cyclopenta[a]phenanthren-15-yl)propanamide]
- inhibition at 1 µM [1]: 7%
- inhibition at 0.1 µM [2]: 56%
- Rabbit placenta inhibition % @100 nM [3]: 3%

Structure (SMILES): C[C@]12CCC3c4ccc(Cl)cc4CCC3C1[C@H](CCC(=O)Nc1ncccc1F)C/C2=N\O (stereo partly drawn) [Compound 162, 3-((13S,15R,E)-3-chloro-17-(hydroxyimino)-13-methyl-7,8,9,11,12,13,14,15,16,17-decahydro-6H-cyclopenta[a]phenanthren-15-yl)-N-(3-fluoropyridin-2-yl)propanamide]
- HSD2 inhibition % @1 μM [1]: 10%
- HSD1 inhibition % @100 nM [2]: 44%
- Rabbit placenta inhibition % @100 nM [3]: 7%

Structure (SMILES): C[C@]12CCC3c4ccccc4CCC3C1[C@H](CCC(=O)Nc1ncccc1F)C/C2=N\O (stereo partly drawn) [Compound 160, N-(3-fluoropyridin-2-yl)-3-((13S,15R,E)-17-(hydroxyimino)-13-methyl-7,8,9,11,12,13,14,15,16,17-decahydro-6H-cyclopenta[a]phenanthren-15-yl)propanamide]
- inhibition at 1 µM [1]: 5%
- inhibition at 0.1 µM [2]: 66%
- Rabbit placenta inhibition % @100 nM [3]: 10%

Structure (SMILES): C[C@]12CCC3c4ccccc4CCC3C1[C@H](CCC(=O)Nc1cccnn1)C/C2=N\O (stereo partly drawn) [Compound 82]
- inhibition at 1 µM [1]: 7%
- inhibition at 0.1 µM [2]: 17%
- Rabbit placenta inhibition % @100 nM [3]: 18%

Structure (SMILES): C[C@]12CCC3c4ccc(Cl)cc4CCC3C1[C@H](CCC(=O)Nc1ccc(N3CCOCC3)cn1)C/C2=N\O (stereo partly drawn) [Compound 78, 3-((13S,15R,E)-3-chloro-17-(hydroxyimino)-13-methyl-7,8,9,11,12,13,14,15,16,17-decahydro-6H-cyclopenta[a]phenanthren-15-yl)-N-(5-morpholinopyridin-2-yl)propanamide]
- inhibition at 1 µM [1]: 1%
- inhibition at 0.1 µM [2]: 76%
- Rabbit placenta inhibition % @100 nM [3]: 37%

Structure (SMILES): COc1ccnc(NC(=O)CC[C@@H]2C/C(=N\O)[C@@]3(C)CCC4c5cccc(F)c5CCC4C23)c1 (stereo partly drawn) [Compound 132, 3-((13S,15R,E)-4-fluoro-17-(hydroxyimino)-13-methyl-7,8,9,11,12,13,14,15,16,17-decahydro-6H-cyclopenta[a]phenanthren-15-yl)-N-(4-methoxypyridin-2-yl)propanamide]
- inhibition at 1 µM [1]: 6%
- inhibition at 0.1 µM [2]: 87%
- Rabbit placenta inhibition % @100 nM [3]: 27%

Structure (SMILES): C[C@]12CCC3c4ccccc4CCC3C1[C@H](CCC(=O)Nc1ncccc1O)C/C2=N\O (stereo partly drawn) [Compound 102, 3-((13S,15R,E)-17-(hydroxyimino)-13-methyl-7,8,9,11,12,13,14,15,16,17-decahydro-6H-cyclopenta[a]phenanthren-15-yl)-N-(3-hydroxypyridin-2-yl)propanamide]
- inhibition at 1 µM [1]: 20%
- inhibition at 0.1 µM [2]: 57%
- Rabbit placenta inhibition % @100 nM [3]: 1%
